Where no end group is shown, it is not given here.
What was measured:
[1] = target: T1, Lck (Homo sapiens, UniProt P06239); experiment: Lck mediated phosphorylation of TAT-peptides (Lck kinase enzyme system); type: biochemical; details: in vitro
T1 construct: purchased Promega
Procedure: CD45 activity was measured using CD45 tyrosine phosphatase assay kit (Enzo Life Sciences) following the manufacturer's instructions. Purified recombinant GBV-C E2 protein expressed in CHO cells was described previouslyl^2. Enzymatic activity was evaluated with or without GBV-C E2 protein (10 μg) or human IgG control (10 μg; Sigma) at room temperature. Following 1 hour incubation, the reaction was terminated and absorbance determined by a Microplate reader (Model 680, Bio-Rad) at OD620nm. Phosphorylation of GBV-C E2 protein by Lck was measured by incubating recombinant E2 protein (40 μg) with or without human Lck ([…]; R&D Systems) as recommended by the manufacturer. Samples were subjected to immunoblot analysis as described above. Phosphorylation was determined by immunoblot analysis with phosphotyrosine antibodies (Invitrogen) and GBV-C E2 protein was identified using an anti-E2 monoclonal antibody. Lck mediated phosphorylation of GBV-C E2 derived TAT-peptides were performed using Lck kinase enzyme system (Promega) as recommended by the manufacturer.

[2] = test system: Healthy donors PBMCs; experiment: IL-2 production by PBMCs incubated with synthetic TAT peptides, anti-CD3/CD28 stimulation; type: cell-based, human; details: 20 μg peptide over night, anti-CD3/CD28 500 ng/ml, 24 hrs
Description: pLAT (Y191) was quantified using PathScan ELISA kit (Cell Signaling Technology) and IL-2 cytokine released into cell culture supernatant was quantified using human IL-2 quantikine ELISA kit (R&D Systems) according to manufacturer's instructions.
(§1) FITC labelled synthetic peptides with an N-terminal HIV TAT protein transduction domain (TAT) alone (GGGGGRKKRRQRRR; SEQ ID NO: 13), or with the GBV-C E2 aa 86-101 ([…]; SEQ ID NO: 14; Y87), or the Y87H mutation ([…]; SEQ ID NO: 15) were obtained from Ana Spec, Inc. Peptides with the TAT domain and GBV-C E2 aa 276-292 (GGAGLTGGRYEPLVRRC; SEQ ID NO: 16), or the same amino acids in a scrambled order (GCRCARGVLLTPGEGYF; SEQ ID NO: 17) as previously described^28. Peptides were dissolved in RPMI with 10% DMSO. The TAT domain enhances cellular uptake of the peptide. Healthy donors PBMCs (1×10^6 cells/ml) were incubated with 20 μg peptide at 37° C. over night before stimulation with 500 ng/ml anti-CD3/CD28. IL-2 release and cellular receptor expression was analyzed 24 hrs later.

[3] = test system: primary human CD4+ and CD8+ T cells; experiment: CD69 and CD25 surface expression on CD4+ and CD8+ T cells incubated with synthetic TAT peptides; type: cell-based; details: compared to mutant or control peptide
Procedure: Cellular receptor expression was measured using the following antibodies per manufacturer's recommendation: CD69 (PE), CD25 (APC), CD45 (PE) (BD Biosciences). Cells were incubated on ice for 1 hour, washed 3 times with PBS and fixed in 2% paraformaldehyde (Polysciences). Data was acquired on BD LSR II flow cytometer using single stained CompBeads (BD Biosciences) for compensation. At least 10,000 total events were collected in each experiment and the FlowJo program (Tree Star Inc.) was used for data analysis. All flow cytometry experiments were repeated at least three times with consistent results.
as §1

T1 sequence (P06239 whole entry, species assumed): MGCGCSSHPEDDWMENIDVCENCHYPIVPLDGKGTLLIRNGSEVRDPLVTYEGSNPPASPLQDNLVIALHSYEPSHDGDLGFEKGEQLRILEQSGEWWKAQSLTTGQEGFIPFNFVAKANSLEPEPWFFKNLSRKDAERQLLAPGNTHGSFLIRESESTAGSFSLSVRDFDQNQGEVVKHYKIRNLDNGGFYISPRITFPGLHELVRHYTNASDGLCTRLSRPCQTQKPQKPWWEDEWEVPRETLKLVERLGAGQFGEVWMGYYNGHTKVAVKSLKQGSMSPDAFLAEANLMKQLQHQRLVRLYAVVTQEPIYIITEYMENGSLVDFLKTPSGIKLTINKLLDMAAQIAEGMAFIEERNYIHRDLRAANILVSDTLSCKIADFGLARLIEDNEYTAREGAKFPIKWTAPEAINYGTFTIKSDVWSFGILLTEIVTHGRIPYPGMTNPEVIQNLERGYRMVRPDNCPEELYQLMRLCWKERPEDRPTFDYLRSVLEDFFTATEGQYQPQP

Row | Sequence | Lck mediated phosphorylation of peptide (Lck substrate) [1] | IL-2 production [2] | surface expression of CD25 [3] | surface expression of CD69 [3]
1 | GGAGLTGGRYEPLVRRC [TAT-276-292] | served as a Lck substrate in vitro |  |  | 
2 | GGGGGRKKRRQRRR (also: FITC label, site not given here) [TAT control, HIV TAT protein transduction domain alone; negative control, reference compound] |  | not |  | 
3 | GGGGGRKKRRQRRRVHGSVSVTCVWGS (also: FITC label, site not given here) [TAT-Y87H, TAT peptide with the Y87H mutation] |  | not |  | 
4 | GGGGGRKKRRQRRRVYGSVSVTCVWGS (also: FITC label, site not given here) [TAT-Y87, synthetic peptide, N-terminal HIV TAT protein transduction domain with GBV-C E2 aa 86-101] | phosphorylated by Lck in a dose-dependent manner | inhibited | significantly reduced | significantly reduced

— patent US9611301B2, “GB virus C (hepatitis G virus) E2 glycoprotein as an immunomodulatory agent” (priority 2012, dated 2017)
